ChEMBL document CHEMBL3880428, “Sulfonamide derivative having PGD2 receptor antagonistic activity” (2012)

What was measured:
Type in all cases: cell-based
HEK293 [1] = test: Selectivity ratio of IC50 for PGD2 receptor in human platelets to IC50 for human EP2 receptor expressed in HEK293 cells by cAMP accumulation assay
HEK293 [2] = test: Selectivity ratio of IC50 for PGD2 receptor in human platelets to IC50 for human EP1 receptor expressed in HEK293 cells by cAMP accumulation assay
HEK293 [3] = test: Selectivity ratio of IC50 for PGD2 receptor in human platelets to IC50 for human EP3 receptor expressed in HEK293 cells by cAMP accumulation assay
HEK293 [4] = test: Selectivity ratio of IC50 for PGD2 receptor in human platelets to IC50 for human IP receptor expressed in HEK293 cells by cAMP accumulation assay
HEK293 [5] = test: Selectivity ratio of IC50 for PGD2 receptor in human platelets to IC50 for human EP4 receptor expressed in HEK293 cells by cAMP accumulation assay
HEK293 [6] = test: Selectivity ratio of IC50 for PGD2 receptor in human platelets to IC50 for human FP receptor expressed in HEK293 cells by cAMP accumulation assay
HEK293 [7] = test: Selectivity ratio of IC50 for PGD2 receptor in human platelets to IC50 for human TP receptor expressed in HEK293 cells by cAMP accumulation assay

Measured: Ratio IC50

CC(C)Oc1ccc(S(=O)(=O)N2CCN(c3ccc(C(=O)NCc4ccccn4)c(OCC(=O)O)c3)CC2)cc1
> 20: all assays above

CC(C)Oc1ccc(S(=O)(=O)N2CCN(c3cccc(OCC(=O)O)n3)CC2)cc1
> 20: all assays above

COC(=O)Nc1ccc(N2CCN(S(=O)(=O)c3ccc(OC(C)C)cc3)CC2)cc1OCC(=O)O
> 20: all assays above

CC(C)Oc1ccc(S(=O)(=O)N2CCN(c3cc(OCC(=O)O)ccc3Cl)CC2)cc1
> 20: all assays above

CC(C)OC(=O)Nc1ccc(N2CCN(S(=O)(=O)c3ccc(OC(C)C)cc3)CC2)cc1OCC(=O)O
> 20: all assays above

COCC#Cc1cc(OCC(=O)O)cc(N2CCN(S(=O)(=O)c3ccc(OC(C)C)cc3)CC2)c1
> 20: all assays above

CC(C)Oc1ccc(S(=O)(=O)N2CCN(c3ccc(-c4cocn4)c(OCC(=O)O)c3)CC2)cc1
> 20: all assays above

CC(C)Oc1ccc(S(=O)(=O)N2CCN(c3cc(OCC(=O)O)cc(-c4cccs4)c3)CC2)cc1
> 20: all assays above

CC(C)Sc1ccc(S(=O)(=O)N2CCN(c3ccc(Cl)c(OCC(=O)O)c3)CC2)cc1
> 20: all assays above

CC(C)Oc1ccc(S(=O)(=O)N2CCN(c3ccc(-c4ccccc4)c(OCC(=O)O)c3)CC2)cc1
> 20: all assays above

CC(C)Oc1ccc(S(=O)(=O)N2CCN(c3ccc(Cl)c(/C=C/C(=O)O)c3)CC2)cc1
> 20: all assays above

CC(C)Oc1ccc(S(=O)(=O)N2CCN(c3ccc(Cl)c(CC(=O)O)c3)CC2)cc1
> 20: all assays above

CC(C)Oc1ccc(S(=O)(=O)N2CCN(c3ccc(C#N)c(OCC(=O)O)c3)CC2)cc1
> 20: all assays above

CC(C)Oc1ccc(S(=O)(=O)N2CCN(c3ccc(-n4cccn4)c(OCC(=O)O)c3)CC2)cc1
> 20: all assays above

Cc1cnc(-c2ccc(N3CCN(S(=O)(=O)c4ccc(OC(C)C)cc4)CC3)cc2OCC(=O)O)o1
> 20: all assays above

CC(C)Oc1ccc(S(=O)(=O)N2CCN(c3ccc(OCc4ccccc4)c(OCC(=O)O)c3)CC2)cc1
> 20: all assays above

CC(C)Oc1ccc(S(=O)(=O)N2CCN(c3ccc(NC(=O)c4ccno4)c(OCC(=O)O)c3)CC2)cc1
> 20: all assays above

CC(C)Oc1ccc(S(=O)(=O)N2CCN(c3ccc(OCc4ccoc4)c(OCC(=O)O)c3)CC2)cc1
> 20: all assays above

CC(C)Oc1ccc(S(=O)(=O)N2CCN(c3ccc(NC(=O)c4ccco4)c(OCC(=O)O)c3)CC2)cc1
> 20: all assays above

CC(C)Oc1ccc(S(=O)(=O)N2CCN(c3ccc(-c4ncco4)c(OCC(=O)O)c3)CC2)cn1
> 20: all assays above

CC(C)Oc1ccc(S(=O)(=O)N2CCC(Oc3ccccc3CCC(=O)O)CC2)cc1
> 20: all assays above

CC(C)Oc1ccc(S(=O)(=O)N2CCN(c3ccc(C(=O)Nc4ccccc4)c(OCC(=O)O)c3)CC2)cc1
> 20: all assays above

CC(C)Oc1ccc(S(=O)(=O)N2CCC(Oc3ccccc3/C=C/C(=O)O)CC2)cc1
> 20: all assays above

CC(C)Oc1ccc(S(=O)(=O)N2CCN(c3ccc(C(=O)Nc4ccn(C)n4)c(OCC(=O)O)c3)CC2)cc1
> 20: all assays above

CC(C)Oc1ccc(S(=O)(=O)N2CCN(c3ccc(C(=O)NC4CC4)c(OCC(=O)O)c3)CC2)cc1
> 20: all assays above

CC(C)Oc1ccc(S(=O)(=O)N2CCN(c3cc(OCC(=O)O)cc(C(F)(F)F)c3)CC2)cc1
> 20: all assays above
